In ChEMBL document CHEMBL5518215, “Unlocking Antibacterial Potential: Key-Site-Based Regulation of Antibacterial Spectrum of Peptides” (J Med Chem, 2024):

Experiments:
Escherichia coli [1] = test: Antimicrobial activity against Escherichia coli 25922 assessed as absence bacterial growth measured after 18 to 24 hrs incubation by NCCLS method; assay type: functional; details: time 18-24 hrs
Escherichia coli [2] = test: Antimicrobial activity against Escherichia coli K88 assessed as absence bacterial growth measured after 18 to 24 hrs incubation by NCCLS method; assay type: functional; details: time 18-24 hrs
Salmonella typhimurium [3] = test: Antimicrobial activity against Salmonella typhimurium 14028 assessed as absence bacterial growth measured after 18 to 24 hrs incubation by NCCLS method; assay type: functional, Salmonella enterica subsp. enterica serovar Typhimurium; details: Salmonella enterica, time 18-24 hrs
[4] = Antimicrobial activity against Salmonella pullorum C7913 assessed as absence bacterial growth measured after 18 to 24 hrs incubation by NCCLS method; assay type: functional, Salmonella enterica subsp. enterica serovar Pullorum; details: Salmonella enterica, time 18-24 hrs
Pseudomonas aeruginosa [5] = test: Antimicrobial activity against Pseudomonas aeruginosa 27853 assessed as absence bacterial growth measured after 18 to 24 hrs incubation by NCCLS method; assay type: functional; details: time 18-24 hrs
Acinetobacter baumannii [6] = test: Antimicrobial activity against Acinetobacter baumannii 1.6769 assessed as absence bacterial growth measured after 18 to 24 hrs incubation by NCCLS method; assay type: functional; details: time 18-24 hrs
Enterococcus faecalis [7] = test: Antimicrobial activity against Enterococcus faecalis 29212 assessed as absence bacterial growth measured after 18 to 24 hrs incubation by NCCLS method; assay type: functional; details: time 18-24 hrs
Listeria monocytogenes [8] = test: Antimicrobial activity against Listeria monocytogenes 1.10753 assessed as absence bacterial growth measured after 18 to 24 hrs incubation by NCCLS method; assay type: functional; details: time 18-24 hrs
Bacillus cereus [9] = test: Antimicrobial activity against Bacillus cereus 1.932 assessed as absence bacterial growth measured after 18 to 24 hrs incubation by NCCLS method; assay type: functional; details: time 18-24 hrs
Staphylococcus aureus [10] = test: Antimicrobial activity against Staphylococcus aureus 29213 assessed as absence bacterial growth measured after 18 to 24 hrs incubation by NCCLS method; assay type: functional; details: time 18-24 hrs
Staphylococcus aureus [11] = test: Antimicrobial activity against Methicillin-resistant Staphylococcus aureus 43300 assessed as absence bacterial growth measured after 18 to 24 hrs incubation by NCCLS method; assay type: functional; details: time 18-24 hrs
[12] = system: Staphylococcus epidermidis; test: Antimicrobial activity against Staphylococcus epidermidis 12228 assessed as absence bacterial growth measured after 18 to 24 hrs incubation by NCCLS method; assay type: functional; details: time 18-24 hrs
Staphylococcus aureus [13] = test: Antimicrobial activity against Staphylococcus aureus 29213 assessed as absence bacterial growth measured after 18 to 24 hrs incubation by NCCLS m; assay type: functional; details: time 18-24 hrs
Escherichia coli [14] = test: Antimicrobial activity against Escherichia coli 25922 assessed as bacterial killing measured after 16 hrs incubation; assay type: functional
Escherichia coli [15] = test: Antimicrobial activity against Escherichia coli K88 assessed as bacterial killing measured after 16 hrs incubation; assay type: functional
Salmonella typhimurium [16] = test: Antimicrobial activity against Salmonella typhimurium 14028 assessed as bacterial killing measured after 16 hrs incubation; assay type: functional, Salmonella enterica subsp. enterica serovar Typhimurium; details: Salmonella enterica
Salmonella typhimurium [17] = test: Antimicrobial activity against Salmonella typhimurium C7731 assessed as bacterial killing measured after 16 hrs incubation; assay type: functional, Salmonella enterica subsp. enterica serovar Typhimurium; details: Salmonella enterica
[18] = Antimicrobial activity against Salmonella pullorum C7913 assessed as bacterial killing measured after 16 hrs incubation; assay type: functional, Salmonella enterica subsp. enterica serovar Pullorum; details: Salmonella enterica
Pseudomonas aeruginosa [19] = test: Antimicrobial activity against Pseudomonas aeruginosa 27853 assessed as bacterial killing measured after 16 hrs incubation; assay type: functional
Acinetobacter baumannii [20] = test: Antimicrobial activity against Acinetobacter baumannii 1.6769 assessed as bacterial killing measured after 16 hrs incubation; assay type: functional
Enterococcus faecalis [21] = test: Antimicrobial activity against Enterococcus faecalis 29212 assessed as bacterial killing measured after 16 hrs incubation; assay type: functional
Listeria monocytogenes [22] = test: Antimicrobial activity against Listeria monocytogenes 1.10753 assessed as bacterial killing measured after 16 hrs incubation; assay type: functional
Bacillus cereus [23] = test: Antimicrobial activity against Bacillus cereus 1.932 assessed as bacterial killing measured after 16 hrs incubation; assay type: functional
Staphylococcus aureus [24] = test: Antimicrobial activity against Staphylococcus aureus 29213 assessed as bacterial killing measured after 16 hrs incubation; assay type: functional
Staphylococcus aureus [25] = test: Antimicrobial activity against Methicillin-resistant Staphylococcus aureus 43300 assessed as bacterial killing measured after 16 hrs incubation; assay type: functional
[26] = system: Staphylococcus epidermidis; test: Antimicrobial activity against Staphylococcus epidermidis 12228 assessed as bacterial killing measured after 16 hrs incubation; assay type: functional
Staphylococcus aureus [27] = test: Antimicrobial activity against Staphylococcus aureus 25923 assessed as bacterial killing measured after 16 hrs incubation; assay type: functional
Salmonella typhimurium [28] = test: Antimicrobial activity against Salmonella typhimurium C7731 assessed as absence bacterial growth measured after 18 to 24 hrs incubation by NCCLS method; assay type: functional, Salmonella enterica subsp. enterica serovar Typhimurium; details: Salmonella enterica, time 18-24 hrs
Escherichia coli [29] = test: Antimicrobial activity against Escherichia coli 25922 assessed as absence bacterial growth measured after 18 to 24 hrs incubation in presence of 50% serum by NCCLS method; assay type: functional; details: time 18-24 hrs
Escherichia coli [30] = test: Antimicrobial activity against Escherichia coli 25922 assessed as absence bacterial growth measured after 18 to 24 hrs incubation in presence of 25% serum by NCCLS method; assay type: functional; details: time 18-24 hrs
Escherichia coli [31] = test: Antimicrobial activity against Escherichia coli 25922 assessed as absence bacterial growth measured after 18 to 24 hrs incubation in presence of 12.5% serum by NCCLS method; assay type: functional; details: time 18-24 hrs
Escherichia coli [32] = test: Antimicrobial activity against Escherichia coli 25922 assessed as absence bacterial growth measured after 18 to 24 hrs incubation in presence of NaCl by NCCLS method; assay type: functional; details: time 18-24 hrs
Escherichia coli [33] = test: Antimicrobial activity against Escherichia coli 25922 assessed as absence bacterial growth measured after 18 to 24 hrs incubation in presence of KCl by NCCLS method; assay type: functional; details: time 18-24 hrs
Escherichia coli [34] = test: Antimicrobial activity against Escherichia coli 25922 assessed as absence bacterial growth measured after 18 to 24 hrs incubation in presence of NH4Cl by NCCLS method; assay type: functional; details: time 18-24 hrs
Escherichia coli [35] = test: Antimicrobial activity against Escherichia coli 25922 assessed as absence bacterial growth measured after 18 to 24 hrs incubation in presence of MgCl2 by NCCLS method; assay type: functional; details: time 18-24 hrs
Escherichia coli [36] = test: Antimicrobial activity against Escherichia coli 25922 assessed as absence bacterial growth measured after 18 to 24 hrs incubation in presence of ZnCl2 by NCCLS method; assay type: functional; details: time 18-24 hrs
Escherichia coli [37] = test: Antimicrobial activity against Escherichia coli 25922 assessed as absence bacterial growth measured after 18 to 24 hrs incubation in presence of FeCl3 by NCCLS method; assay type: functional; details: time 18-24 hrs
Erythrocyte = test: Hemolytic activity in human RBC at effective concentration measured after 1 hr by microplate reader analysis; assay type: toxicity, cell-based
[38] = Cytotoxicity against mouse RAW264.7 cells assessed as cell survival rate measured after 8 hrs by MTT assay; assay type: toxicity, cell-based
[39] = Cytotoxicity against human HEK-293T cells assessed as cell survival rate measured after 8 hrs by MTT assay; assay type: toxicity, cell-based
[40] = Cytotoxicity against porcine IPEC-J2 cells assessed as cell survival rate measured after 8 hrs by MTT assay; assay type: toxicity, cell-based, Sus scrofa; details: pig

H-GKLWLKGVKLWLKGGKLWLKG-NH2
MIC (Escherichia coli [1]): 1 µM | MIC (Escherichia coli [2]): 0.5 µM | MIC (Salmonella typhimurium [3]): 2 µM | MIC [4]: 0.5 µM | MIC (Pseudomonas aeruginosa [5]): 4 µM | MIC (Acinetobacter baumannii [6]): 1 µM | MIC (Enterococcus faecalis [7]): 4 µM | MIC (Listeria monocytogenes [8]): > 32 µM | MIC (Bacillus cereus [9]): 4 µM | MIC (Staphylococcus aureus [10]): 4 µM | MIC (Staphylococcus aureus [11]): 2 µM | MIC [12]: 2 µM | MIC (Staphylococcus aureus [13]): 2 µM | MBC (Escherichia coli [14]): 1 µM | MBC (Escherichia coli [15]): 0.5 µM | MBC (Salmonella typhimurium [16]): 2 µM | MBC (Salmonella typhimurium [17]): 8 µM | MBC [18]: 0.5 µM | MBC (Pseudomonas aeruginosa [19]): 4 µM | MBC (Acinetobacter baumannii [20]): 4 µM | MBC (Enterococcus faecalis [21]): 4 µM | MBC (Listeria monocytogenes [22]): > 32 µM | MBC (Bacillus cereus [23]): 4 µM | MBC (Staphylococcus aureus [24]): 4 µM | MBC (Staphylococcus aureus [25]): 2 µM | MBC [26]: 4 µM | MBC (Staphylococcus aureus [27]): 4 µM | MIC (Salmonella typhimurium [28]): 4 µM | MIC (Escherichia coli [29]): > 32 µM | MIC (Escherichia coli [30]): > 32 µM | MIC (Escherichia coli [31]): 16 µM | MIC (Escherichia coli [32]): 4 µM | MIC (Escherichia coli [33]): 1 µM | MIC (Escherichia coli [34]): 1 µM | MIC (Escherichia coli [35]): 4 µM | MIC (Escherichia coli [36]): 1 µM | MIC (Escherichia coli [37]): 1 µM | HC10 (Erythrocyte): 128 µM | IC50 at 8 h [38]: 61.3 µM | IC50 at 8 h [39]: > 64 µM | IC50 at 8 h [40]: 8.73 µM

H-GKLWLKGCKLWLKGGKLWLKG-NH2
MIC (Escherichia coli [1]): 8 µM | MIC (Escherichia coli [2]): 2 µM | MIC (Salmonella typhimurium [3]): 8 µM | MIC [4]: 2 µM | MIC (Pseudomonas aeruginosa [5]): 32 µM | MIC (Acinetobacter baumannii [6]): 8 µM | MIC (Enterococcus faecalis [7]): > 32 µM | MIC (Listeria monocytogenes [8]): > 32 µM | MIC (Bacillus cereus [9]): 4 µM | MIC (Staphylococcus aureus [10]): > 32 µM | MIC (Staphylococcus aureus [11]): 32 µM | MIC [12]: > 32 µM | MIC (Staphylococcus aureus [13]): > 32 µM | MBC (Escherichia coli [14]): 8 µM | MBC (Escherichia coli [15]): 2 µM | MBC (Salmonella typhimurium [16]): 16 µM | MBC (Salmonella typhimurium [17]): 32 µM | MBC [18]: 4 µM | MBC (Pseudomonas aeruginosa [19]): 32 µM | MBC (Acinetobacter baumannii [20]): 16 µM | MBC (Enterococcus faecalis [21]): > 32 µM | MBC (Listeria monocytogenes [22]): > 32 µM | MBC (Bacillus cereus [23]): 4 µM | MBC (Staphylococcus aureus [24]): > 32 µM | MBC (Staphylococcus aureus [25]): 32 µM | MBC [26]: > 32 µM | MBC (Staphylococcus aureus [27]): > 32 µM | MIC (Salmonella typhimurium [28]): 8 µM | MIC (Escherichia coli [29]): > 32 µM | MIC (Escherichia coli [30]): > 32 µM | MIC (Escherichia coli [31]): > 32 µM | MIC (Escherichia coli [32]): > 32 µM | MIC (Escherichia coli [33]): 8 µM | MIC (Escherichia coli [34]): 8 µM | MIC (Escherichia coli [35]): > 32 µM | MIC (Escherichia coli [36]): 8 µM | MIC (Escherichia coli [37]): 8 µM | HC10 (Erythrocyte): > 128 µM | IC50 at 8 h [38]: > 64 µM | IC50 at 8 h [39]: > 64 µM | IC50 at 8 h [40]: > 64 µM
